# How the values were obtained:
# human 5-HT2A = biological target: T1, human 5-HT2A (Homo sapiens, UniProt P28223); test: Primary radioligand competitive binding assay, [3H]ketanserin; conditions: ligand 10 μM, HEK293 cells
# T1 construct: expressed in transfected cells; host or cells: HEK293 (Flp-In system, pcDNA5.0FRT)
# Experimental: HEK293 cells and CHO cells were used in the radioligand binding assay while tsA-201 cells were used in the electrophysiological study. Human CB2, human 5-HT2A, rat 5-HT2C used in the binding studies were cloned into pcDNA5.0FRT and cell lines were made using the FlpIn system from Invitrogen. tsA-201 cell culture and transient calcium channel transfection were performed as described previously. In brief, tsA-201 cells were transfected using the calcium phosphate method. Cav3.1, 3.2 and 3.3 α1 subunits were transfected individually with yellow fluorescent protein as a transfection marker.
# Radioligand binding data were obtained using National Institute of Mental Health's Psychoactive Drug Screening Program (NIMH/PDSP) using the same protocol described for CB1 and CB2 binding experiments. Transfected HEK293 (human 5-HT2A or rat 5-HT2C) cells were used. The radioligands were [^3H]ketanserin (0.5 nM) and [^3H]mesulergine (0.5 nM) for respectively 5-HT2A and 5-HT2C experiments. Non-specific binding was determined in the presence of 10 μM chlorpromazine for both 5-HT2A and 5-HT2C binding experiments. Cells were harvested and homogenized in 50 mM Tris HCl, 10 mM MgCl2, 0.1 mM EDTA, pH 7.4. Incubation of radioreceptor binding assay mixtures was 1.5 hours at room temperature in the dark.
# Cav3.2 = biological target: T2, Cav3.2 (Homo sapiens, UniProt O95180); test: Whole-cell patch-clamp on Cav3.2: concentration-response and steady-state inactivation; format: cell-based; conditions: 10 μM; for half-inactivation potential after treatment with drug: n = 4
# T2 construct: expressed in transfected cells; host or cells: tsA-201 cells, transient calcium phosphate transfection
# Experimental: To further characterize compounds NMP-4, NMP-7 and NMP-144, we investigated the concentration dependence of their action on Cav3.2, the major T-type calcium channel subtype implicated in the afferent pain pathway (Figure 2B, C).
# To determine whether these compounds also affected inactivated channels, we recorded steady-state inactivation curves prior and after application of NMP-4, NMP-7 or NMP-144.
# Whole-cell currents were recorded from tsa-201 cells 2-4 days after transfection. The external recording solution contained (in mM): BaCl2 (20), MgCl2 (1), HEPES (10), TEA-Cl (40), CsCl (65), d-glucose (10) and pH 7.2 adjusted with TEA-OH. The internal pipette solution was composed of (in mM) Cs-methanesulfonate (108), MgCl2 (4), EGTA (9), HEPES (9) and pH 7.2 adjusted with CsOH. The internal solution was supplemented with 0.6 mM GTP (sodium salt) and 2 mM ATP (tris salt), which were added directly to the internal solution immediately prior to use. Pipettes with a resistance of 2~5 MΩ when filled with internal solution were used for recording. Currents were elicited from a holding potential of -100 mV and were measured by conventional whole-cell patch clamp using an Axopatch 200B amplifier in combination with Clampex 9.2 software (Axon Instruments, Foster City, CA). Data were filtered at 1 kHz (8-pole Bessel) and digitized at 10 kHz with a Digidata 1320 (Axon Instruments, Foster City, CA). Series resistance were compensated by 85% in all experiments. An online P/4 programme was used to subtract the leak currents. Drugs were dissolved in DMSO at the following stock concentrations: 20 mM for NMP-4 and NMP-7, and 10 mM for NMP-139, NMP-140, NMP-141 and NMP-144. Prior to the experiment, drugs were diluted into external recording solution with a final DMSO concentration no higher than 0.3%. DMSO was also included in the control solution. Drug delivery was controlled by a Valvelink8.2 fast perfusion system (Automate Scientific Inc., Berkeley, CA). The perfusion tip was positioned a few hundred microns from the cell and kept as constant as possible throughout the experiments. Electrophysiological data were analyzed using Clampfit 9.2 (Axon Instruments, Foster City, CA) and GraphPad Prism 5 software (GraphPad Software Inc., San Diego, CA). […] Steady-state inactivation curves were fitted using the Boltzmann equation: I = 1/(1 + e ^(V-Vh)/k), where Vh is the half inactivating potential and k is the slope factor.
# formalin-induced pain = test: Formalin test (formalin-induced nociception); format: in vivo, mice; conditions: for effect on second phase of formalin-induced nociception / effect on first phase of formalin-induced nociception: i.pl., co-injected with formalin; for effect on second phase of formalin-induced nociception: 0.03-3 μg/paw; for effect on first phase of formalin-induced nociception: NMP-4 and NMP-144 0.03-3 μg/paw, NMP-7 0.3-3 μg/i.pl.; for reduction of pain response time, first (neurogenic) phase / reduction of pain response time, second (inflammatory) phase: 10 min prior, NMP-4 1-10 μg/i.t., NMP-144 0.1-1 μg/i.t., NMP-7 3-30 μg/i.t., mice
# Experimental: All experiments were conducted following the protocol approved by the Institutional Animal Care and Use Committee (protocol #M09130) and all efforts were made to minimize animal suffering. Male mice of C57BL/6J strain weighing 25~30 g, 10 weeks old were used. Animals were housed at a maximum number of five per cage (30 × 20 × 15 cm) with food and water ad libitum. They were kept in 12 h light/dark cycles (lights on at 7:00 a.m.) at a temperature of 23 ± 1°C. All manipulations were carried out between 11:00 am and 3:00 pm. […] Control animals received the same vehicle used to dilute the compounds. When drugs were delivered by intraperitoneal (i.p.) route, a constant volume of 10 ml/kg body weight was injected. When drugs were administered by intrathecal (i.t.) or intraplantar (i.pl.) routes, respectively volumes of 5 μl or 20 μl were injected. Appropriate vehicle-treated groups were also assessed simultaneously.
# The formalin test is a widely used model that allows us to evaluate two different types of pain: neurogenic pain (phase 1) is caused by direct activation of nociceptive nerve terminals, while inflammatory pain (phase 2) is mediated by a combination of peripheral input and spinal cord sensitization. Animals received 20 μl of a formalin solution (1.25%) made up in PBS injected intraplantarly (i.pl.) in the ventral surface of the right hindpaw. Following i.pl. injection of formalin, the animals were immediately placed individually into observation chambers and the time spent licking or biting the injected paw was be recorded and considered as nociceptive response. We observed animals individually from 0-5 min (neurogenic phase) and 15-30 min (inflammatory phase).
# Intrathecal injections were given to fully conscious mice using the method previously described by Hylden and Wilcox. Briefly, the animals were manually restrained, and a 30-gauge needle connected by a polyethylene tube to a 25 μl Hamilton syringe (Hamilton, Birmingham, UK) was inserted through the skin and between the vertebrae into the […] space of the L5-L6 spinal segments. Intrathecal injections were given over a period of 5 seconds.
# Human CB2 = Human CB2 (Homo sapiens, UniProt P34972); test: GTPγ[35S] functional assay, CHO cell membrane extracts; format: biochemical; set-up: expressed in transfected cells; host or cells: CHO cells (membrane extracts); conditions: for Emax: read-out: GTPγ[35S] functional assays Human CB2 Emax
# Chain of Human CB2 (P34972 whole entry): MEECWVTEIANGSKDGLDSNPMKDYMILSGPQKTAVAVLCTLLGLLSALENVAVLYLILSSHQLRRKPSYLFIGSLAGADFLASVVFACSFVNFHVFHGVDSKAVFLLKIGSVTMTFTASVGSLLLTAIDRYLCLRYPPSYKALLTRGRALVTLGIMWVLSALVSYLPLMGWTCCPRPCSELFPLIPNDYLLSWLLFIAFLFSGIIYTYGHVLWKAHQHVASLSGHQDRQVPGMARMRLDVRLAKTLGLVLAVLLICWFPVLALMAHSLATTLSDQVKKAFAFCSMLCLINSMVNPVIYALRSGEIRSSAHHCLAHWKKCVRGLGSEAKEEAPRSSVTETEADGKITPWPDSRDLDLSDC
# T2 sequence (O95180 whole entry): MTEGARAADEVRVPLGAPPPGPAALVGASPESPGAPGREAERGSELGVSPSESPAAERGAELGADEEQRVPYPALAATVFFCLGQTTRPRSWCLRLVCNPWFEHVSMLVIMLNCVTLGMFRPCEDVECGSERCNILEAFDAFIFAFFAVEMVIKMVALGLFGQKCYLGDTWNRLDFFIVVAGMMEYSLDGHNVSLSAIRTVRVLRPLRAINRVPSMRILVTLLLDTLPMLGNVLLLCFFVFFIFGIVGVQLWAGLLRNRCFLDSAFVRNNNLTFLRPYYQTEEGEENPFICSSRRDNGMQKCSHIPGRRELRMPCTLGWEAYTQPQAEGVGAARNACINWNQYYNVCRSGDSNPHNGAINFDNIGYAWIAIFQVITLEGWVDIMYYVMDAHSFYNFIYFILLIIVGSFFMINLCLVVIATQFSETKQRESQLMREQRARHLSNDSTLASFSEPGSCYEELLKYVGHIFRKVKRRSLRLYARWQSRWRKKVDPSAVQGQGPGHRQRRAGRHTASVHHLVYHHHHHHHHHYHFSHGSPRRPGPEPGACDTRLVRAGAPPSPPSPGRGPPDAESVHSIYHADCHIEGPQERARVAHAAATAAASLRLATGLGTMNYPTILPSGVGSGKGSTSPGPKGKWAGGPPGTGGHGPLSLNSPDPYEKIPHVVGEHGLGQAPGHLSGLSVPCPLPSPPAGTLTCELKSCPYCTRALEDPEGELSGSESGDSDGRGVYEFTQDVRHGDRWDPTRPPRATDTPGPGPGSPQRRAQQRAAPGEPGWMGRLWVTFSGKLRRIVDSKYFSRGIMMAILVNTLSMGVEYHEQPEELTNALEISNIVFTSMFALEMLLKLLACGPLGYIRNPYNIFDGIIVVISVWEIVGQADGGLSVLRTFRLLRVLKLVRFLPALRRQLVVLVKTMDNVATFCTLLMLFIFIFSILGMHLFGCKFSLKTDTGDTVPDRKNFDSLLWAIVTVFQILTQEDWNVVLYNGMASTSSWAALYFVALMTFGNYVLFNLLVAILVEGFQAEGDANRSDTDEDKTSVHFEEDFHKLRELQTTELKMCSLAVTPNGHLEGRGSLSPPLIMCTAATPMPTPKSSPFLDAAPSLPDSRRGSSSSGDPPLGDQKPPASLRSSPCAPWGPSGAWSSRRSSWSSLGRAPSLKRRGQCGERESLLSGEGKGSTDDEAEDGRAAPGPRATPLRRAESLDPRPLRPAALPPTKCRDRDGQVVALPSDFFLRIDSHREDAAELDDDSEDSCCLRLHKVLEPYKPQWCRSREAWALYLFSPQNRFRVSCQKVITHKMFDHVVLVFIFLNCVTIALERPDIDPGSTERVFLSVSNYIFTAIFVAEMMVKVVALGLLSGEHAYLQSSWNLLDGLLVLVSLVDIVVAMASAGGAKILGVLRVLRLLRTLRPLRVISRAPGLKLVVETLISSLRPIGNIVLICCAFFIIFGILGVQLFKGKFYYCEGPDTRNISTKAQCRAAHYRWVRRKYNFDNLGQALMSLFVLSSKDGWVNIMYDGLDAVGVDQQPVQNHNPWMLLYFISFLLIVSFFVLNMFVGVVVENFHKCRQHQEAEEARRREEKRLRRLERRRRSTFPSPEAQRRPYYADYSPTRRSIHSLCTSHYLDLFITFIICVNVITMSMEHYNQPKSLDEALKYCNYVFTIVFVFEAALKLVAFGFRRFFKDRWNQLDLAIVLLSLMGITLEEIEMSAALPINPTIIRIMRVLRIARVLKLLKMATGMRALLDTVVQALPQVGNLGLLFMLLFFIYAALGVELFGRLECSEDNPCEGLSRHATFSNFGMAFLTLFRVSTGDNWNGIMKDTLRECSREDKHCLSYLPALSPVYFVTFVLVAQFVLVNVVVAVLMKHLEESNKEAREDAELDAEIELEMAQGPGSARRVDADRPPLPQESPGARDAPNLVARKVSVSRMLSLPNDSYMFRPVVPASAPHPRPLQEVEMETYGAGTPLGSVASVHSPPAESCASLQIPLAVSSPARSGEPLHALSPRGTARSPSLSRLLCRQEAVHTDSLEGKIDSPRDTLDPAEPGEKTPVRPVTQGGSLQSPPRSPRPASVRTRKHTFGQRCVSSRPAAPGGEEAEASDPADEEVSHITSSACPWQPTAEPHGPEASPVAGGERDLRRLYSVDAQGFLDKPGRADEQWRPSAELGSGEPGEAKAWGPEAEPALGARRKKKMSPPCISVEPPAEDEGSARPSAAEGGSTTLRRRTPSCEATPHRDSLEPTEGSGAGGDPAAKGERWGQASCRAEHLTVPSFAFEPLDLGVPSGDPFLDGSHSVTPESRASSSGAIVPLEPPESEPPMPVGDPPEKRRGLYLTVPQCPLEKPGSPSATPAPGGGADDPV
# T1 sequence (P28223 whole entry): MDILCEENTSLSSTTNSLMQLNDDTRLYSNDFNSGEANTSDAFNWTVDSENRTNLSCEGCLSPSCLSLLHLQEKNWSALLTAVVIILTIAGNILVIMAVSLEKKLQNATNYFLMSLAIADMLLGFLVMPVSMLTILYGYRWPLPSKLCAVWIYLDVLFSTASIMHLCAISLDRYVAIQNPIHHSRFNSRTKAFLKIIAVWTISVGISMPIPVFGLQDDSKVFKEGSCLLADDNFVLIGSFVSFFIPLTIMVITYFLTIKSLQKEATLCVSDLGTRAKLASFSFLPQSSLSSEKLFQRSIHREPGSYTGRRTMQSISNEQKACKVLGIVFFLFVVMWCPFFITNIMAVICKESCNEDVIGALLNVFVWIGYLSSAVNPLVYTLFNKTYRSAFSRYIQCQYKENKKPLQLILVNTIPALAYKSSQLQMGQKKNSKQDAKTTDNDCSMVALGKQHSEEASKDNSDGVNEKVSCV
Compound,Human 5-HT2A (%) primary radioligand competitive binding (human 5-HT2A) [%],hyperpolarizing shift in the half inactivation potential of Cav3.2 channels (Cav3.2),half-inactivation potential after treatment with drug (Cav3.2) [mV],"effect of i.pl. pre-treatment on the antinociceptive effect of NMP-7 (1 μg/i.pl.), first phase (formalin-induced pain; NMP-4 0.03 μg/i.pl. pre-treatment)",effect on second phase of formalin-induced nociception (formalin-induced pain),effect on first phase of formalin-induced nociception (formalin-induced pain),"reduction of pain response time, first (neurogenic) phase (formalin-induced pain; i.t.) [%]","reduction of pain response time, second (inflammatory) phase (formalin-induced pain; i.t.) [%]",EC50 (Human CB2) [nM],Emax (Human CB2) [%],"lowest dose producing analgesia (formalin-induced pain; i.t., formalin response) [μg/i.t.]"
CCCCCn1c2ccc(C(=O)N3CCCCC3)cc2c2ccc(OC)cc21 [NMP-4],23.9,20 mV,-72.9 ± 4.7,significantly antagonized,no effect was observed,no effect was observed,44 ± 4,87 ± 7,9.8 ± 0.3,-76.4,–
CCCCCn1c2c(c3ccc(OC)cc31)CN(C(=O)c1ccccc1)CC2 [NMP-144],-5.2,did not significantly affect voltage-dependent inactivation,-55.8 ± 2.2,–,no effect was observed,no effect was observed,52 ± 3,53 ± 14,35.7 ± 13.9,-48.1,0.3

# — publication PMC3250956, “Functional characterization and analgesic effects of mixed cannabinoid receptor/T-type channel ligands” (Molecular Pain, 2011)
